# Read-outs that look alike come from different tables or passages of the source.
# What was measured:
# SMN2 mRNA = test: RT-qPCR splicing assay, SMN2 mRNA; assay type: cell-based, human; details: Homo sapiens, canonical junction qPCR panel, Table 4; read-out: SMN2 IC50 (decrease in CJ mRNA levels)
# Outline: (§1)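 Canonical and alternative-exon junction isoforms were quantified by RT-qPCR in cell lysates, with ΔCt against a housekeeper (GAPDH/GUSB/PPIA), then ΔΔCt vs DMSO, converted to 2^(−ΔΔCt) and percent response. K562 or A673 cells were exposed for 24 h to 11 concentrations (3-fold, top final 10 uM).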
# MYB mRNA = test: RT-qPCR splicing assay, MYB mRNA canonical (CJ) and alternative (AJ) junction; assay type: cell-based, human; details: Homo sapiens; for AC50: MYB alternative junction mRNA, read-out: MYB AJ (increase in AJ mRNA, AC50)
# Outline: as §1
# Target C = test: HiBiT protein abundance assay, Target C (K562 HiBiT knock-in); assay type: cell-based, human; details: HiBiT knock-in K562 cells, 24 hours, top dose 10 μM
# Outline: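 K562 HiBiT knock-in cells (10000/well) were treated 24 h at 37° C with a 10-point 3-fold dilution series (top 10 μM final, ≤0.25% DMSO). HiBiT luminescence was read after lytic LgBiT detection. Percent response used unmodified K562 and DMSO-treated knock-in controls, and IC50 came from a four-parameter fit at 50% of untreated.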
# K562 cells = test: Cell Titer Glo 2.0 cell viability (toxicity) assay, K562; details: 500 cells/well, 72 hours
# MYB = test: HiBiT protein abundance assay, MYB (K562 HiBiT knock-in); assay type: cell-based, human; details: HiBiT knock-in K562 cells, 24 hours, top dose 10 μM
# Outline: (§2)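 Tagged-protein levels were measured as HiBiT/LgBiT luminescence in lysed K562 knock-in cells exposed to serially diluted compound (up to 10 μM final) for 24 hours. A four-parameter logistic regression of control-normalized signal yielded the IC50.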
# HTT = test: HiBiT protein abundance assay, HTT (K562 HiBiT knock-in); assay type: cell-based, human; details: HiBiT knock-in K562 cells, 24 hours, top dose 10 μM
# Outline: as §2
# HTT mRNA = test: RT-qPCR splicing assay, HTT mRNA canonical (CJ) and alternative (AJ) junction; assay type: cell-based, human; details: Homo sapiens; for AC50: HTT alternative junction mRNA, read-out: HTT AJ (increase in AJ mRNA, AC50)
# Outline: as §1
# [1] = MYB canonical junction mRNA, RT-qPCR, read-out: MYB CJ (decrease in CJ mRNA levels, IC50)
# [2] = canonical junction qPCR panel, Table 4, read-out: MYB IC50 (decrease in CJ mRNA levels)
# [3] = HTT canonical junction mRNA, RT-qPCR, read-out: HTT CJ (decrease in CJ mRNA levels, IC50)
# [4] = canonical junction qPCR panel, Table 4, read-out: HTT IC50 (decrease in CJ mRNA levels)
IC50 (SMN2 mRNA) [nM],IC50 (MYB mRNA; [1]) [nM],IC50 (MYB mRNA; [2]) [nM],IC50 (Target C) [nM],IC50 (MYB) [nM],IC50 (HTT) [nM],IC50 (HTT mRNA; [3]) [nM],IC50 (HTT mRNA; [4]) [nM],Structure (SMILES),AC50 (MYB mRNA; RT-qPCR) [nM],"Effect of Exemplary Compounds on Cell Viability, K562 (K562 cells)",AC50 (HTT mRNA; RT-qPCR) [nM]
> 10000,> 10000,> 10000,> 10000,> 10000,> 10000,> 10000,> 10000,Cn1cc2cc(-c3ccc4cc(C5CCNCC5)c(F)cc4n3)c(O)cc2n1 [Compound 144],> 10000,D (D represents greater than 10 μM in K562 cells),> 10000
> 10000,> 10000,> 10000,> 10000,> 10000,> 10000,> 10000,> 10000,COc1cc2nn(C)cc2cc1-c1ccc2cc(C3CCNCC3)c(F)cc2n1 [Compound 145],> 10000,D (D represents greater than 10 μM in K562 cells),> 10000
100 to 1000,1000 to 10000,1000 to 10000,1000 to 10000,1000 to 10000,1000 to 10000,1000 to 10000,1000 to 10000,Cn1cc2cc(O)c(-c3ccc4nc(C5CCNCC5)ccc4n3)cc2n1 [Compound 146],1000 to 10000,C (C represents 1000-9999 nM),1000 to 10000
< 100,100 to 1000,100 to 1000,1000 to 10000,1000 to 10000,1000 to 10000,1000 to 10000,1000 to 10000,Cc1nc2cc(O)c(-c3ccc4nc(C5CCNCC5)ccc4n3)cc2s1 [Compound 148],100 to 1000,B (B represents 100-1000 nM),1000 to 10000
100 to 1000,1000 to 10000,1000 to 10000,> 10000,1000 to 10000,1000 to 10000,> 10000,> 10000,Cc1cn2cc(-c3ccc4nc(C5CCNCC5)ccc4n3)c(O)cc2n1 [Compound 149],> 10000,C (C represents 1000-9999 nM),> 10000
< 100,< 100,< 100,< 100,< 100,< 100,< 100,< 100,Cc1cn2nc(-c3ccc4nc(C5CCNCC5)ccc4n3)c(O)c2c(C)n1 [Compound 150],< 100,A (A represents <100 nM),< 100
1000 to 10000,> 10000,> 10000,> 10000,> 10000,> 10000,> 10000,> 10000,c1c[nH]c(-c2ccc3nc(C4CCNCC4)ccc3n2)n1 [Compound 152],> 10000,D (D represents greater than 10 μM in K562 cells),> 10000
< 100,< 100,< 100,< 100,< 100,< 100,< 100,< 100,Cn1cc2cc(-c3ccc4nc(N5CC[C@@H](NC(C)(C)C)C5)ccc4n3)c(O)cc2n1 [Compound 153],< 100,B (B represents 100-1000 nM),< 100
< 100,100 to 1000,100 to 1000,< 100,< 100,< 100,< 100,< 100,Cn1cc2cc(-c3ccc4nc(N5CC[C@H](NC(C)(C)C)C5)ccc4n3)c(O)cc2n1 [Compound 154],< 100,A (A represents <100 nM),< 100
< 100,< 100,< 100,100 to 1000,< 100,< 100,< 100,< 100,Cn1cc2cc(-c3ccc4nc(N5CC[C@@H](NC6CCC6)C5)ccc4n3)c(O)cc2n1 [Compound 157],< 100,B (B represents 100-1000 nM),< 100
< 100,< 100,< 100,100 to 1000,< 100,< 100,< 100,< 100,Cn1cc2cc(-c3ccc4nc(N5CCC(NC6CC6)C5)ccc4n3)c(O)cc2n1 (stereo not shown) [Compound 158],< 100,B (B represents 100-1000 nM),< 100
100 to 1000,1000 to 10000,1000 to 10000,1000 to 10000,100 to 1000,100 to 1000,1000 to 10000,1000 to 10000,Cn1cc2cc(-c3ccc4nc(OC5CNC5)ccc4n3)c(O)cc2n1 [Compound 159],1000 to 10000,C (C represents 1000-9999 nM),1000 to 10000
< 100,100 to 1000,100 to 1000,100 to 1000,100 to 1000,100 to 1000,100 to 1000,100 to 1000,Cn1cc2cc(-c3ccc4nc(N5CC[C@]67CCN[C@H]6CC[C@H]57)ccc4n3)c(O)cc2n1 [Compound 160],100 to 1000,B (B represents 100-1000 nM),100 to 1000
1000 to 10000,> 10000,> 10000,> 10000,> 10000,> 10000,> 10000,> 10000,COc1cc2ccncc2cc1-c1ccc2nc(N3CCC(NC(C)(C)C)C3)ccc2n1 (stereo not shown) [Compound 161],> 10000,C (C represents 1000-9999 nM),> 10000
1000 to 10000,> 10000,> 10000,> 10000,> 10000,> 10000,> 10000,> 10000,Cn1cc2cc(-c3ccc4nc(N5CCC56CCNC6)ccc4n3)c(O)cc2n1 (stereo not shown) [Compound 162],> 10000,C (C represents 1000-9999 nM),> 10000
100 to 1000,1000 to 10000,1000 to 10000,> 10000,1000 to 10000,1000 to 10000,> 10000,> 10000,Cn1cc2cc(-c3ccc4nc(N5CCC56CCCNC6)ccc4n3)c(O)cc2n1 (stereo not shown) [Compound 163],1000 to 10000,C (C represents 1000-9999 nM),> 10000
100 to 1000,100 to 1000,100 to 1000,100 to 1000,100 to 1000,100 to 1000,100 to 1000,100 to 1000,Cn1cc2cc(-c3ccc4nc(N5CCC56CCNCC6)ccc4n3)c(O)cc2n1 [Compound 164],100 to 1000,B (B represents 100-1000 nM),100 to 1000

# From patent publication US20250092065A1, “2-(INDAZOL-5-YL)-6-(PIPERIDIN-4-YL)-1,7-NAPHTHYRIDINE DERIVATIVES AND RELATED COMPOUNDS AS MODULATORS FOR SPLICING NUCLEIC ACIDS AND FOR THE TREATMENT OF PROLIFERATIVE DISEASES” (REMIX THERAPEUTICS INC., priority 2022, published 2025)
